Literature values, collected in US5277910A, “Process for the preparation of a pharmaceutical composition selectively lowering the blood-lipid level” (priority 1991, dated 1994).

Legend:
monkeys = monkeys fed with alfalfa; in words
[1] = in words

Row | uterotrophic activity [1] | SMILES | induced syndrome (monkeys)
1 |  | N=C(N)NOCCC(N)C(=O)O (centres unmarked) [Canavanine, 2-amino-4-(guanidinooxy)-butyric acid] | induces a syndrome resembling lupus erithemathosus
2 | high uterotrophic activity | O=c1oc2cc(O)ccc2c2oc3cc(O)ccc3c12 [coumestrol] | 
